Source: publication PMC5496928, “Data driven polypharmacological drug design for lung cancer: analyses for targeting ALK, MET, and EGFR” (Journal of Cheminformatics, 2017)

What was measured:
[1] = biological target: T1, ALK (Homo sapiens, UniProt Q9UM73); assay: KdELECT binding assay (DiscoverX); conditions: read-out: Kd study, ALK
T1 construct: purchased DiscoverX
Excerpt: (§1) Tests of the compounds confirm suitability for ALK + MET + EGFR polypharmacology optimization (Table 1). […] For compound 1, ^3 with the acrylamide function at the site corresponding to that of WZ4002, both ALK and MET binding were inhibited more weakly compared to EGFR binding. […] The sensitivity to the assay conditions seen for both forms of EGFR and uniformly tighter binding under the new assay conditions may indicate tighter binding for ALK and MET under these altered assay conditions as well.
(§2) The three tricyclic compounds (1, 2a and 2b) were purchased from the company ARTTSynthesis (www.arttsynthesis.com). Tests for binding properties were performed by the company DiscoverX (www.discoverx.com), using a concentration of 1 µM against ALK, MET and EGFR variants L858R and L858R_T790M) using KdELECT and scanKINETIC from DiscoverX [124, 125].

[2] = biological target: T2, EGFR (L858R) (Homo sapiens, UniProt P00533, L858R); assay: KdELECT binding assay (DiscoverX); conditions: read-out: Kd study, EGFR LR
T2 construct: purchased DiscoverX
Excerpt: as §1, §2

[3] = biological target: T3, EGFR (L858R, T790M) (Homo sapiens, UniProt P00533, L858R/T790M); assay: KdELECT binding assay (DiscoverX); conditions: read-out: Kd study, EGFR LR+TM
T3 construct: purchased DiscoverX
Excerpt: as §1, §2

[4] = biological target: T4, MET (Homo sapiens, UniProt P08581); assay: KdELECT binding assay (DiscoverX); conditions: read-out: Kd study, MET
T4 construct: purchased DiscoverX
Excerpt: as §1, §2

[5] = biological target: T2, EGFR (L858R); assay: scanKINETIC binding kinetics assay (DiscoverX); conditions: for Percentage comparing 1 or 6 h incubation, EGFR LR: percentages significantly lower than 100% indicate slow association; for Percentage after 30× dilution, EGFR LR: apparent residual compound relative to bound value at 1 h, significantly higher than 3% indicates slow dissociation
Excerpt: as §1
(§3) The kinetics testing results (Table 1) support several further important conclusions. […] The simultaneous appearance of slow association and slow dissociation complicates the interpretation of the results, but the percentage values shown in Table 1 show the apparent residual amounts of compounds relative to bound values at 1 h. These values indicate retention of roughly half of compound 1, and nearly all of compound 2a, after dilution. […] The similarity of compound 2a to 2b and 1 with respect to structure and binding strength, differing only in the linker to the acrylamide binding group, is further evidence that that it is the covalent binding property that determines the difference in binding kinetics, rather than e.g. a slow conformational change of the target enzymes.
as §2

[6] = biological target: T3, EGFR (L858R, T790M); assay: scanKINETIC binding kinetics assay (DiscoverX); conditions: for Percentage comparing 1 or 6 h incubation, EGFR LR+TM: percentages significantly lower than 100% indicate slow association; for Percentage after 30× dilution, EGFR LR+TM: apparent residual compound relative to bound value at 1 h, significantly higher than 3% indicates slow dissociation
Excerpt: as §1, §3, §2

[7] = system: EGFR (L858R) and EGFR (L858R, T790M); assay: scanKINETIC conclusions stated in text for both EGFR forms together; format: binding; conditions: for Dissociation behaviour: 30-fold dilution following one hour of incubation; for Association behaviour: comparing 1-h and 6-h incubation times; for Retention of compound after dilution: relative to bound values at 1 h; for Covalent binding to EGFR (both forms): interpretation of kinetics data
Excerpt: as §1, §3, §2

[8] = biological target: T1, ALK; set-up: method as in PMID 20033049; conditions: cited from earlier work
[9] = biological target: T4, MET; conditions: cited from earlier work
[10] = system: EGFR; set-up: method as in PMID 20033049; conditions: cited from earlier work
[11] = system: MET mutant Y1230C; set-up: method as in PMID 19459657; conditions: cellular assay; cited from earlier work
[12] = Kd, EGFR LR (1 h), scanKINETIC, 1 h incubation
[13] = Kd, EGFR LR (6 h), scanKINETIC, 6 h incubation
[14] = Kd, EGFR LR+TM (1 h), scanKINETIC, 1 h incubation
[15] = Kd, EGFR LR+TM (6 h), scanKINETIC, 6 h incubation
[16] = Apparent Kd, EGFR LR (30× dilution), 30× dilution after 1 h incubation
[17] = Apparent Kd, EGFR LR+TM (30× dilution), 30× dilution after 1 h incubation

T1 sequence (Q9UM73 19-1620): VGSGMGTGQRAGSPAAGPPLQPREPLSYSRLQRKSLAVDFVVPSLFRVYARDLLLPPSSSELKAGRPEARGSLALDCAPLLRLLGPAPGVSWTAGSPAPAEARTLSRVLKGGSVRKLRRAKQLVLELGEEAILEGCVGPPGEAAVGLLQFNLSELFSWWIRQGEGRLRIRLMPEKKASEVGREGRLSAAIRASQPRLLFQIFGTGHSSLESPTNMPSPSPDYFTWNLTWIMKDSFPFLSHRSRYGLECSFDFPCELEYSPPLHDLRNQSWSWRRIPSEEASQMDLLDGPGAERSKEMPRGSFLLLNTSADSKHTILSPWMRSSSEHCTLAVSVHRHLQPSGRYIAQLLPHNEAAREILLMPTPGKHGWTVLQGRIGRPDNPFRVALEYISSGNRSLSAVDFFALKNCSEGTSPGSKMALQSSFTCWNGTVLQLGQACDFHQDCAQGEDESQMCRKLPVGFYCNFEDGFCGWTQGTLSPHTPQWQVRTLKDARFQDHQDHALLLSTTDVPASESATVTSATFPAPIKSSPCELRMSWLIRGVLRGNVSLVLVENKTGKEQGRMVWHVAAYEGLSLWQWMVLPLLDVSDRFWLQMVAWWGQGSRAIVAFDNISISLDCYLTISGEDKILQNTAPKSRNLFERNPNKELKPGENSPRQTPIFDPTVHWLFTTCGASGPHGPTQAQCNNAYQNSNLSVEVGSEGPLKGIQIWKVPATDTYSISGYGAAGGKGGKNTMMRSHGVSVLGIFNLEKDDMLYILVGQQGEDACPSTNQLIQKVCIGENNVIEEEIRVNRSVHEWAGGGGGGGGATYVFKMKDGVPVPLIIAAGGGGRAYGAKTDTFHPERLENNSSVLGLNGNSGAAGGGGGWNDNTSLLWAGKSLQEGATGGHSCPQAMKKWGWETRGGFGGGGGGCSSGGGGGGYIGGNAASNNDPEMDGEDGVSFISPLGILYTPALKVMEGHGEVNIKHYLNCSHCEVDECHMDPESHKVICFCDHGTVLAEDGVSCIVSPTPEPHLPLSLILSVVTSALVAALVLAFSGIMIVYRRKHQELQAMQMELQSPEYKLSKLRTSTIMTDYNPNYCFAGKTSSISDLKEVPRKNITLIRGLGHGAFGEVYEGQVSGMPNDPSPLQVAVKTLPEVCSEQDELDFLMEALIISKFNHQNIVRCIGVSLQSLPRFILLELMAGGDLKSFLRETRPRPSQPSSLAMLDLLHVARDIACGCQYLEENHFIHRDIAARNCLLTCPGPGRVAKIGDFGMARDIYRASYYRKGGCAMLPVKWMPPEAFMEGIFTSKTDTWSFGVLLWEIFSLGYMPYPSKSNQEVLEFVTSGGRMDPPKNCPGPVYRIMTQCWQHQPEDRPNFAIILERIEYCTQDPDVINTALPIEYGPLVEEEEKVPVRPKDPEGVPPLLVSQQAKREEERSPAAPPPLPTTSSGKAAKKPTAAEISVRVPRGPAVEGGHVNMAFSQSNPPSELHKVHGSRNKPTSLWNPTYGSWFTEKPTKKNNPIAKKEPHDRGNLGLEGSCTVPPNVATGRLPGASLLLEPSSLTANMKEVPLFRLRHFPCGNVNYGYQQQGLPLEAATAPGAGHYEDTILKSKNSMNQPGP
T4 sequence (P08581 25-1390): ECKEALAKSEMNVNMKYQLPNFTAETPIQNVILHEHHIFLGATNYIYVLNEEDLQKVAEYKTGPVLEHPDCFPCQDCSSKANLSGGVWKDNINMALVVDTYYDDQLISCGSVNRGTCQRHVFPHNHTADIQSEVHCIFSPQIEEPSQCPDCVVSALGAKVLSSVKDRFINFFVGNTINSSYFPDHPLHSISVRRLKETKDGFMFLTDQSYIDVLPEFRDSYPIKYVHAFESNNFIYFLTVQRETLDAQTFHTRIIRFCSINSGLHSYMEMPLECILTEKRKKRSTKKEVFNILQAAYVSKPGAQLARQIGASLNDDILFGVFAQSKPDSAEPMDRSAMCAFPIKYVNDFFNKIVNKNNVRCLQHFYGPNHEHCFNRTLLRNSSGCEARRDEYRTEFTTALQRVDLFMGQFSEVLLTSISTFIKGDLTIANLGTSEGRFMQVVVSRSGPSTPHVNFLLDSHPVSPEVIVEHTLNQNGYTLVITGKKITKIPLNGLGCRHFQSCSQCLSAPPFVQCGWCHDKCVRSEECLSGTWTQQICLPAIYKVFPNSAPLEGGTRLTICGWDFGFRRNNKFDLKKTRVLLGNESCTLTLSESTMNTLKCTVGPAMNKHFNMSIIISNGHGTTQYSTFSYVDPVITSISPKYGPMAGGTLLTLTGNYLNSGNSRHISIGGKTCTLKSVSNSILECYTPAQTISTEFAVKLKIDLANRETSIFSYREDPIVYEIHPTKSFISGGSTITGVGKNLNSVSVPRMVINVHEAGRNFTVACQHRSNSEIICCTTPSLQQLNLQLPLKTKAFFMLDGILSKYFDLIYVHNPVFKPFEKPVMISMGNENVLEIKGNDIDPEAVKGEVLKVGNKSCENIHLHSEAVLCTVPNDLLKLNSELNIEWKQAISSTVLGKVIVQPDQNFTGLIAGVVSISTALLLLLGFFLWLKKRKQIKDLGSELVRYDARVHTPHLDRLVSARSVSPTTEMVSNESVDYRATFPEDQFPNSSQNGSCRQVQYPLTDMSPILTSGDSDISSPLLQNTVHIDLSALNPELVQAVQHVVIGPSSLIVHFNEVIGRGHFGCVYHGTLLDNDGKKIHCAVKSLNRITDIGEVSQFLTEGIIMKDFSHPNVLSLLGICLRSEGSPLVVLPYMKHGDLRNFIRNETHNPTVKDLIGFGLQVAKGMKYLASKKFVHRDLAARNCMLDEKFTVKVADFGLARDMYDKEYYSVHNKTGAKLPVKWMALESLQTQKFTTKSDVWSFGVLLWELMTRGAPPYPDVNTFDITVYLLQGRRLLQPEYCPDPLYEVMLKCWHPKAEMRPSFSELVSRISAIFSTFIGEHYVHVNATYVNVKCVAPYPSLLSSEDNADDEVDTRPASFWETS

Kd [1] | Kd [2] | Kd [3] | Kd [4] | Kd [5, 12] | Kd [5, 13] | Percentage comparing 1 or 6 h incubation, EGFR LR [5] | Kd [6, 14] | Kd [6, 15] | Percentage comparing 1 or 6 h incubation, EGFR LR+TM [6] | Kd [5, 16] | Percentage after 30× dilution, EGFR LR [5] | Kd [6, 17] | Percentage after 30× dilution, EGFR LR+TM [6] | Covalent binding to EGFR (both forms) [7] | SMILES | Dissociation behaviour [7] | Association behaviour [7] | Retention of compound after dilution [7] | further results
800 nM | 420 nM | 110 nM | > 1000 nM | 57 nM | 5.7 nM | 10% | 25 nM | 3.2 nM | 13% | – | – | – | – | – | C=CC(=O)Nc1cccc(Nc2nc(Nc3ccccc3)ncc2Cl)c1 [compound 1, N‐(3‐{[5‐chloro‐2‐(phenylamino)pyrimidin‐4‐yl]amino}phenyl)prop‐2‐enamide] | slow dissociation behavior | relatively slow-binding | roughly half | –
– | – | – | – | – | – | – | – | – | – | – | – | – | – | – | C=CC(=O)Nc1cccc(Oc2nc(Nc3ccc(N4CCN(C)CC4)cc3OC)ncc2Cl)c1 [WZ4002] | – | – | – | Binding to ALK [8]: known to bind; Binding to MET [9]: known to bind; Covalent binding to EGFR [10]: known to bind covalently to EGFR
340 nM | 710 nM | 110 nM | 250 nM | 340 nM | 47 nM | 14% | 56 nM | 8 nM | 14% | 340 nM | 100% | 56 nM | 100% | able to bind covalently | C=CC(=O)Nc1cccc(Nc2ncc(Cl)c(Nc3ccccc3)n2)c1 [compound 2a, N‐(3‐{[5‐chloro‐4‐(phenylamino)pyrimidin‐2‐yl]amino}phenyl)prop‐2‐enamide] | slow dissociation behavior | relatively slow-binding | nearly all | –
390 nM | 780 nM | 270 nM | 330 nM | 170 nM | 110 nM | 65% | 58 nM | 100 nM | 170% | 2900 nM | 5.9% | 4100 nM | 1.4% | no evidence of covalent binding | C=CC(=O)NCc1cccc(Nc2ncc(Cl)c(Nc3ccccc3)n2)c1 [compound 2b, N‐[(3‐{[5‐chloro‐4‐(phenylamino)pyrimidin‐2‐yl]amino}phenyl)methyl]prop‐2‐enamide] | – | fast association | – | Time within which binding is complete [7]: ≤ 1 h; Time within which dissociation is complete ([7]; after 30-fold dilution): ≤ 5 h
– | – | – | – | – | – | – | – | – | – | – | – | – | – | – | C[C@@H](Oc1cc(-c2cnn(C3CCNCC3)c2)cnc1N)c1c(Cl)ccc(F)c1Cl [crizotinib] | – | – | – | Weakening of binding to MET mutant Y1230C [11]: 15 fold
